Data from US11559586B2, “Nanoparticles for treatment of choroidal neovascularization and other indications” (Children's Medical Center Corporation, priority 2018, dated 2023).

Test system: laser-induced choroidal neovascularization
Assay: Therapeutic study in laser-induced choroidal neovascularization model, CNV neovessel area
Type: in vivo, C57BL/6 mice
Conditions: free drug, IV day 1, 3, 5; equal dose of doxorubicin
Excerpt: Therapeutic effects of phototriggered activation of nanoparticles in CNV. The mouse model of laser-induced choroidal neovascularization mimics the neovascular aspect of wet AMD, and has been used extensively in studies of that disease. However, unlike the chronic development of wet AMD in human, the laser-induced mouse CNV model is acute—the optimum time point to assess neovessels in this model is between day 7 and day 14. After 14 to 21 days, spontaneous regression begins and lesion size decreases. The dosing regimen in this example was determined accordingly: treatment was initiated on day 7 when the lesions had formed, and its effects were assessed before spontaneous regression would begin on day 14.
In the in vivo therapeutic study, 200 microliters of PBS containing 1 mg of NP-[CPP]-doxo encapsulating 0.02 mg doxorubicin were injected via tail vein one week after photocoagulation (day 1 of treatment), and additional injections were given on day 3 and day 5. […] (The three drug-loaded groups contained equal doses of doxorubicin.) On day 7, mice were euthanized, the size of CNV lesions were assessed by fluorescent imaging of choroidal flat-mounts stained with isolectin GS-IB4 (which labels endothelial cells). […]

SMILES: COc1cccc2c1C(=O)c1c(O)c3c(c(O)c1C2=O)C[C@@](O)(C(=O)CO)C[C@@H]3O[C@H]1C[C@H](N)[C@H](O)[C@H](C)O1 [doxorubicin]
- reduction in neovessel area compared to PBS group: 26.8%
